Patent publication US10538535B2, “Antitumoral compounds” (priority 2017, dated 2020)
Like-named read-outs stand apart in the source and are kept apart here.

Legend:
[1] = MTMD (Maximum Tolerated Multiple Dose) determination, iv weekly x3; format: in vivo; conditions: mice; iv/Q7dx3
How it was run: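 Female CD-1 or athymic nude (nu/nu) mice received compound in experimental formulation at various concentrations, or blank formulation, i.v. at 10 mL/kg, once (MTD) or weekly for three weeks (MTMD). Clinical signs of systemic toxicity, body weight and mortality were followed up to 14 days post-dose.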

HGC27 tumors = conditions: HGC27 xenograft
Procedure: (§2) Female athymic nu/nu mice (Harlan Laboratories Models, S. L. Barcelona, Spain or Envigo, Spain) were utilized for all experiments. Animal were housed in individually ventilated cages Sealsafe® Plus, Techniplast S.P.A.), up to ten per cage on a 12-hour light-dark cycle at 21-23° C. and 40-60% humidity. […] Animals were acclimated for at least 5 days prior to tumor implantation with a tumor cell suspension.
HGC27 cells were maintained in vitro at 37° C. with 5% CO2 in Iscove's Modified Dulbecco's Medium (Sigma Aldrich, Co). Culture cells were passage every 3 to 5 days on reaching confluence. Each animal was subcutaneously implanted (on the right flank using 26 G needle and a 1 cc syringe) at 4-6 weeks of age with 5×10^6 HGC-27 cells suspended in 0.05 mL of a solution consisting of 50% Matrigel® (Corning Incorporated Life Sciences), 50% medium without serum or antibiotics.
(§3) Treatment tolerability was assessed by monitoring body weight evolution, clinical signs of systemic toxicity, as well as evidences of local damage in the injection site.
(§4) Treatments producing >20% lethality and/or 20% net body weight loss were considered toxic.

A2780 tumors = conditions: A2780 xenograft
Procedure: as §2
Culture cells were passaged every 3 to 5 days upon reaching confluence. Each animal was subcutaneously implanted (on the right flank using 26 G needle and a 1 cc syringe) at 4-6 weeks of age with 10×10^6 A2780 cells suspended in 0.05 mL of a solution consisting of 50% Matrigel® (Corning Incorporated Life Sciences) and 50% medium without serum or antibiotics.
as §3
In xenograft studies with other cell lines: • Tumor volume was calculated using the equation (a·b^2)/2, where a: length (longest diameter) and b: width (shortest diameter) were measured in mm by using digital caliper (Fowler Sylvac, S235PAT).
as §4

HT29 cells = assay: cells; conditions: Homo sapiens, HT-29, 72 h
How it was run: (§1)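 Cells were seeded at 5000 per well, attached overnight in drug-free medium, then exposed for 72 hours to ten 2/5 serial dilutions (10 to 0.003 μg/mL, 1% final DMSO) in triplicate. Growth was measured by SRB staining against a time-zero plate, with NCI-algorithm four-parameter logistic fits.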

A549 cells = assay: cells; conditions: Homo sapiens, A549, 72 h
How it was run: as §1

PSN1 cells = assay: cells; conditions: Homo sapiens, PSN1, 72 h
How it was run: as §1

MDA-MB-231 cells = assay: cells; conditions: Homo sapiens, MDA-MB-231, 72 h
How it was run: as §1

H526 tumors = assay: In vivo xenograft, human lung (SCLC) H526; conditions: iv weekly, 32 and ET-736 0.5 mg/Kg
Procedure: Female athymic nu/nu mice (Harlan Laboratories Models, S. L. Barcelona, Spain or Envigo, Spain) were utilized for all experiments. Animal were housed in individually ventilated cages Sealsafe® Plus, Techniplast S.P.A.), up to ten per cage on a 12-hour light-dark cycle at 21-23° C. and 40-60% humidity. Mice were allowed free access to irradiated standard rodent diet (Tecklad 2914C) and sterilized water. Animals were acclimated for at least 5 days prior to tumor implantation with a tumor cell suspension.
H526 cells were grown as a suspension and maintained by addition of fresh medium, as the cell density increases, every 2 to 3 days. Every week, culture was reestablished by centrifugation of the suspension with subsequent resuspension in fresh medium at a concentration of 1×10^5 cell/mL. Each animal was subcutaneously implanted (on the right flank using 26 G needle and a 1 cc syringe) at 4-6 weeks of age with 5×10^6 H526 cells suspended in 0.05 mL of a solution consisting of 50% Matrigel® (Corning Incorporated Life Sciences) and 50% medium without serum or antibiotics.
as §3, §4

## COc1c(C)cc2c(c1O)[C@@H]1[C@@H]3[C@@H]4SC[C@]5(NCCc6c5oc5ccccc65)C(=O)OC[C@@H](c5c6c(c(C)c(OC(C)=O)c54)OCO6)N3[C@@H](O)[C@H](C2)N1C [Compound 32]
[1]
  MTMD: 0.5 mg/kg
HGC27 tumors; Day 0
  Median Tumor Volume: 194.8 mm^3
HGC27 tumors; Day 2
  Median Tumor Volume: 386.3 mm^3
HGC27 tumors; Day 5
  Median Tumor Volume: 551.3 mm^3
HGC27 tumors; Day 7
  Median Tumor Volume: 579.2 mm^3
HGC27 tumors; Day 9
  Median Tumor Volume: 665.8 mm^3
HGC27 tumors; Day 12
  Median Tumor Volume: 701.1 mm^3
HGC27 tumors; Day 14
  Median Tumor Volume: 814.5 mm^3
HGC27 tumors; Day 16
  Median Tumor Volume: 959.9 mm^3
HGC27 tumors; Day 19
  Median Tumor Volume: 1312.4 mm^3
HGC27 tumors; Day 21
  Median Tumor Volume: 1626.8 mm^3
HGC27 tumors; Day 23
  Median Tumor Volume: 1737.3 mm^3
A2780 tumors; Day 0
  Median Tumor Volume: 168.6 mm^3
A2780 tumors; Day 2
  Median Tumor Volume: 262.9 mm^3
A2780 tumors; Day 5
  Median Tumor Volume: 572.7 mm^3
A2780 tumors; Day 7
  Median Tumor Volume: 997.5 mm^3
A2780 tumors; Day 9
  Median Tumor Volume: 1359.9 mm^3
A2780 tumors; Day 12
  Median Tumor Volume: 1715.0 mm^3
A2780 tumors; Day 14
  Median Tumor Volume: 2025.0 mm^3
A2780 tumors; Day 16
  Median Tumor Volume: 2025.0 mm^3
HT29 cells
  GI50: 6.88 nM
HT29 cells; read-out: LC50
  CC50: > 13.2 nM
HT29 cells; read-out: TGI
  IC (TGI): > 13.2 nM
A549 cells
  GI50: 6.88 nM
A549 cells; read-out: LC50
  CC50: > 13.2 nM
A549 cells; read-out: TGI
  IC (TGI): > 13.2 nM
PSN1 cells
  GI50: 6.09 nM
PSN1 cells; read-out: LC50
  CC50: 12 nM
PSN1 cells; read-out: TGI
  IC (TGI): 8.34 nM
MDA-MB-231 cells
  GI50: 4.76 nM
MDA-MB-231 cells; read-out: LC50
  CC50: > 13.2 nM
MDA-MB-231 cells; read-out: TGI
  IC (TGI): 10.5 nM
H526 tumors; Table 63, Day 0
  Median Tumor Volume: 212.1 mm^3
H526 tumors; Table 63, Day 2
  Median Tumor Volume: 277.3 mm^3
H526 tumors; Table 63, Day 4
  Median Tumor Volume: 127.0 mm^3
H526 tumors; Table 63, Day 7
  Median Tumor Volume: 95.0 mm^3
H526 tumors; Table 63, Day 9
  Median Tumor Volume: 63.1 mm^3
H526 tumors; Table 63, Day 11
  Median Tumor Volume: 62.5 mm^3
H526 tumors; Table 63, Day 14
  Median Tumor Volume: 62.5 mm^3
H526 tumors; Table 63, Day 16
  Median Tumor Volume: 62.5 mm^3
H526 tumors; Table 63, Day 21
  Median Tumor Volume: 4.0 mm^3
H526 tumors; Table 63, Day 28
  Median Tumor Volume: 4.0 mm^3
H526 tumors; Table 63, Day 35
  Median Tumor Volume: 55.3 mm^3
H526 tumors; Table 63, Day 42
  Median Tumor Volume: 85.3 mm^3
H526 tumors; Table 63, Day 49
  Median Tumor Volume: 185.6 mm^3
H526 tumors; Table 63, Day 56
  Median Tumor Volume: 169.1 mm^3
H526 tumors; Table 63, Day 63
  Median Tumor Volume: 62.5 mm^3
H526 tumors; Table 63, Day 70
  Median Tumor Volume: 88.9 mm^3
H526 tumors; Table 63, Day 77
  Median Tumor Volume: 280.6 mm^3
H526 tumors; Table 63, Day 84
  Median Tumor Volume: 694.2 mm^3
H526 tumors; Table 63, Day 91
  Median Tumor Volume: 1150.9 mm^3
